PMC7277860, “Viridistratins A−C, Antimicrobial and Cytotoxic Benzo[j]fluoranthenes from Stromata of Annulohypoxylon viridistratum (Hypoxylaceae, Ascomycota)” (Biomolecules, 2020)
Converted amounts (≈) assume the structure as drawn. Read-outs that look alike come from different tables or passages of the source.

How the values were obtained:
Type in all cases: cell-based
Cytotoxicity assay (MTT) = settings: for IC50: 5 days
Protocol: (§1) Compounds 1−5 were dissolved as described in the previous section. The cytotoxicity assay was initially performed against the cell lines L929 (mouse fibroblasts), as well as KB 3.1 (human papillomavirus-related endocervical adenocarcinoma), as described previously. A detailed protocol, as well as sources of the cell lines, is given in the Supporting Information.
(§2) After incubating the cell lines with a serial dilution of the test compounds (final range: 37 to 0.6 × 10^−3 µg/mL) for five days, the cells were dyed using 3-(4,5-dimethyl-2-thiazolyl)-2,5-diphenyl-2H-tetrazolium bromide (MTT), which is only converted to its purple formazan derivative by living cells. Then, the intensity of the purple derivative in relation to cells without additive (set to 100% viability) for each concentration of a test compound was quantified. For this, the absorption at 595 nm was measured using a microplate reader to calculate the percentage of cell viability. From this, the half-maximum inhibitory concentration (IC50, in µM) was calculated.
(§3) Protocol: Cytotoxicity Assay
(§4) The ass ay w as co nducted i n 9 6-well flat-bottom mi crotiter plates using the parameters summarised i n Tabl e S 2 and as described in [S2].
(§5) Cell lines L929 and KB 3.1 were incubated at 37 °C under 10 % CO2 in Gibco™ DMEM medium (Thermo Fisher Scientific, Waltham, MA, USA) supplemented with 10 % FBS. A microtiter plate was filled with 120 µL of this suspension (50,000/mL) in each well.
(§6) Seperately, another microtiter plate was filled with 100 µL of growth medium in each well. Then, 50 µL of the test compound sol utions (1 mg/mL) were given to wells of the first column in two replicates (one compound per row). C ell s wi thout addi ti ves, Me O H, and MeOH: DMSO 9+1 were used as negative controls. Starting from the first column, 50 µL of the solutions were gradually transferred to the ne xt col umn, the conte nts thoroughl y mi xed, and 50 µ L transferred to the following column. This created a serial dilution of the test compounds r anging from 333 µg/mL to 1.9 ×10−3 µg/mL. The remai ni ng 50 µL after column twelve were discarded. From this microtiter plate, 60 µL of the sol utions from 111 µg/ mL to 1.9×10−3 µg/mL were given to the first plate containing 120 µL of the cel l suspens i ons (i.e. the hi ghest concentrati on 333 µg/mL was not used). T his resulted i n fi nal compound concent rati ons rangi ng from […]
(§7) After 5 days of incubation under the aforeme ntioned i ncubati on condi ti ons, the half maximum inhibitory concentrati ons (IC 50) were determined using a colorimetric tetrazolium dye MTT assay [S3].
(§8) For this, 20 µL of a 5 mg/mL solution of 3-( 4 ,5 -dimethyl-2-thi azo l yl)-2 ,5 -di phenyl -2H-tetrazolium bromide (MTT) w ere added to each well and incubated for two hours at 37 °C. Then, the microtiter plate was centrifuged (3,000 r p m, 5 mi n) and the supernat ant remo ved by ho l di ng the pl ate upsi de-do wn and gentle shaking. Afterwards, the wells were washed using 100 µL of phosph ate buffered saline (PBS).
(§9) The plate was again centrifuged and the supernatant removed as described before. Then, 100 µL of an isopropanol:HCl solution (1L i sopropanol+4 mL HCl 37 % w/v) were added to the wells. After i ncubati ng fo r 10 mi n at ambi ent te mperature, the a bso r pti o n of the well s at 595 nm was measured wi th an I nfi ni te ® 200 Pro microplate reader (TECAN, Männedorf, Schweiz).
(§10) The absorption values of the cells without additives were averaged and set to 100 % cell viability.
(§11) Then, t he me ans of absorption of the two compound replicates were set in relation to the blank media.
(§12) These percentage values were plotted a gainst the concentration range (37 µg/mL to 0.6×10 −3 µg/mL).
(§13) The IC50 val ue w as read from the plot ( i n µg/mL) and the uni ts conversed to µM.
(§14) If effects were observed wi th cell lines L929 and KB 3.1 (IC50 < 50 µM), the other cell lines were tested using the same protocol.
(§15) Table S2: Cytotoxicity assay experiment parameters cell line type No. growth medium […]

L929 (mouse fibroblasts) = assay: Cytotoxicity assay (MTT); settings: 5 days
Protocol: as §1, §2, §3, §4, §5, §6, §7, §8, §9, §10, §11, §12, §13, §14, §15

[1] = system: KB 3.1 (human endocervical adenocarcinoma); assay: Cytotoxicity assay (MTT); settings: 5 days
Protocol: as §1, §2, §3, §4, §5, §6, §7, §8, §9, §10, §11, §12, §13, §14, §15

[2] = system: A549 (human lung carcinoma); assay: Cytotoxicity assay (MTT); settings: Homo sapiens, 120 h, A549, 5 days, value in µg/mL, read-out: half-maximum inhibitory concentration (IC50)
Protocol: as §1, §2
(§16) If an inhibition of cell viability with an IC50 < 50 µM was observed, further cell lines were subjected to the test compounds: PC-3 (human prostate adenocarcinoma), SK-OV-3 (human ovary adenocarcinoma), MCF-7 (human breast adenocarcinoma), A431 (human squamous carcinoma) and A549 (human lung carcinoma).
as §3, §4, §5, §6, §7, §8, §9, §10, §11
(§17) These percentage values were plotted a gainst the concentration range (37 µg/mL to 0.6×10 −3 µg/mL). […]

[3] = system: A431 (human squamous carcinoma); assay: Cytotoxicity assay (MTT); settings: Homo sapiens, A-431, 120 h, A431, 5 days, value in µg/mL, read-out: half-maximum inhibitory concentration (IC50)
Protocol: as §1, §2, §16, §3, §4, §5, §6, §7, §8, §9, §10, §11, §17

[4] = human, KB 3.1 human endocervical adenocarcinoma cells
[5] = mouse, L929 mouse fibroblast cells, L929 mouse fibroblasts

| SMILES | IC50 at 5 days (Cytotoxicity assay (MTT); [4]) [µM] | IC50 at 5 days (Cytotoxicity assay (MTT); [5]) [µM] | further results |
| --- | --- | --- | --- |
| COc1cccc2c3c(ccc12)-c1ccc(O)c2c(OC)ccc-3c12 [Compound 3, viridistratin C] | > 50 | > 50 | IC50 (L929 (mouse fibroblasts); read-out: Cytotoxicity (IC50)): 61 µM; IC50 [1]: 85.4 µM |
| COc1cccc2c3c(ccc12)-c1ccc(O)c2c(O)ccc-3c12 [Compound 2, viridistratin B] | 17.2 | 17.2 | IC50 [2]: 0.45 µg/mL (≈ 1.43 µM); IC50 [3]: 0.34 µg/mL (≈ 1.08 µM) |
| Oc1cccc2c3c(ccc12)-c1ccc(O)c2c(O)ccc-3c12 [Compound 1, viridistratin A] | 28.3 | 12.7 | IC50 (L929 (mouse fibroblasts); Mus musculus, L929, 120 h, value in µg/mL, read-out: half-maximum inhibitory concentration (IC50)): 8.5 µg/mL |
| O=C1CCC(=O)c2c1c(O)cc1c2-c2ccc(O)c3c(O)ccc-1c23 [Compound 5, truncatone C] | 30.1 | 16.3 |  |
| O=C1C[C@H]2C(=C3CCC(=O)c4c(O)ccc2c43)c2cccc(O)c21 [Compound 4, truncatone A] |  |  | IC50 (Cytotoxicity assay (MTT); KB 3.1 human endocervical adenocarcinoma): 44 µM; IC50 (Cytotoxicity assay (MTT); L929 mouse fibroblasts): 10.4 µM; IC50 (L929 (mouse fibroblasts); 120 h, value in µg/mL, read-out: half-maximum inhibitory concentration (IC50)): 3.3 µg/mL |
